Reference: patent publication US6124342A, “Pharmaceutical compositions containing pyrylium compounds, pyrylium salts and process for manufacturing a medicament containing the aforesaid compounds” (priority 1993, dated 2000)
Where “and” joins values, the source holds several entries; their conditions need not be identical. Identical values can stand only once. Like-named read-outs stand apart in the source and are kept apart here.

Columns and labels:
[1] = system: skin of each mouse; assay: Irradiation of the back skin of medicated mice without tumour; assay type: in vivo, nude mice; settings: for change on irradiation of mice without tumour: group E or E'; for affinity for cancer cells versus normal cells: inferred from group E or E'
Procedure: Ten nude mice having weight 200-400 g were selected, and they were separated into five groups referred to as A, B, C, D and E, each containing two nude mice. Each of the mice was inocculated on its back with KATO III, which is a culture of stomach cancer cells from a human patient. The cancer cells were inocculated into the central part of the back of each mouse, after which the mice were kept for ten days. […] The mice in groups A, B and E were injected with the compound 1 (Y=I) in balanced saline solution through a vein in the leg. […] In group E, a part of every mouse's back was irradiated with the white light. In each case the amount of irradiation was 50J. Thereafter, the cancerous region of each mouse in the group a to D was observed and the skin of each mouse in the group E was observed.

[2] = system: L-929 cells; assay: Photochemical killing of cultured cancer cells (fluorescence microscope irradiation); settings: for cytotoxicity at 0.25 µg/mL: read-out: percentage of cells which had died, 0.25 μg/ml; for cytotoxicity at 0.5 µg/mL: read-out: percentage of cells which had died, 0.5 μg/ml; for cell killing without irradiation: compound added, not irradiated; for cytotoxicity at 0.05 µg/mL: read-out: percentage of cells which died, 0.05 μg/ml; for cytotoxicity at 0.075 µg/mL: read-out: percentage of cells which died, 0.075 μg/ml
Procedure: L-929 cells which are typical cultured cancer cells from mice were planted onto a culture medium containing E-MEM +10% FCS. The density of the cells in the medium was 10^6 cells/dish (20 ml). Thereafter, the cells were maintained at 37° C. and cultured for 36 hours. Four such cultures using the same medium were prepared. […] Then radiation of wavelength from 560-610 nm to which the compound 1 is responsive was supplied using a fluorescence microscope for the interval of time indicated in Table 3. Thereafter, each medium was cultured for 12 hours, after which the cells were observed using a microscope.
The light used to irradiate the cells at a wavelength of 600-650 nm.
The cells were irradiated with light of wavelength 700-750 nm.

[3] = system: KATO III; assay: Deepness of necrotic tumour after irradiation; assay type: in vivo, human; settings: 1 mg/kg; 580 nm (half-width=20 nm); 10J; one day after irradiation
Procedure: Four nude mice of weight 200-400 g were selected and were separated into groups X and Y, each containing two mice. Next, KATO III was inocculated into every mouse in the same way as in Example 10, after which the mice were kept for three weeks to fix the cancer cells. After three weeks the cancer in each mouse had grown and the size of the cancer was about 13 mm wide, 13 mm long and about 8 mm high. Next the mice in group X were injected via the leg with a balanced saline solution of the compound 1, and the mice of Group Y were injected with a balanced saline solution of the compound 16 via the leg. The dose of the compound 1 or 16 was adjusted to be 1 mg of the compound 1 or the compound 16 per 1 kg of the mouse's weight. Subsequently, the mice in group X were irradiated with radiation of wavelength 580 nm (half-width=20 nm) which was separated by means of a filter, and the mice in group Y were irradiated with radiation having a wavelength 720 nm (half-width=20 nm) which was separated with a filter. The amount of energy irradiated was 10J. One day after the irradiation the depth of the tumour which had become necrotic was measured.

[4] = system: DNA; assay: Light absorption characteristics under existence of DNA (Table 2); assay type: physicochemical; settings: with DNA
From the text: (§1) Typical examples of compounds represented by the formula [I] which can be used as the active ingredient in a medicament for the photochemical treatment of cancer according to the present invention are shown in Table 1 below. Almost all the compound shown in Table 2 have their own absorption peaks in the region 600 nm or above, and have molar absorption coefficients as large as 5-8.5×10^4 l/mol.cm which enables more efficient use to be made of the light in photochemical treatment. Furthermore, compound 1 in Table 2 has an absorption peak in the region below 600 nm, but it has sufficiently strong absorption that it still provides better treatment efficiency at wavelength greater than 600 nm.

[5] = system: nude mice; assay: Acute toxicity test, intravenous injection; assay type: in vivo; settings: balanced saline solution; i.v. leg vein; 1 mg/kg; 2 nude mice
Procedure: The compound 1 (Y=I) was dissolved into a balanced saline solution and was injected into each of 2 nude mice of weight 200-400 g through a vein in the leg of the mouse. The amount of solution injected was 1 mg to 1 kg of the weight of each mouse.
The toxicity test of Example 6 was repeated except that the compound 2 was used in place of the compound 1.
The test of Example 6 was repeated except that the compound 1 (Y=I) was dissolved in dimethyl sulfoxide. The amount of solution injected was 1 mg per 1 kg of the mouse's weight. Subsequent injections on further groups of mice were carried out at 5 mg per 1 kg of the mouse's weight and 25 mg per 1 kg of the mouse's weight.
The same test as in Example 8 was carried out except that the active ingredient was compound 2 (Y=I) instead of compound 1.

[6] = system: cancer cells; assay: Uptake by cancer cells; assay type: cell-based, mice
Procedure: Four such cultures using the same medium were prepared.

[7] = Light absorption characteristics without DNA (Table 2); assay type: physicochemical
From the text: as §1

[8] = system: KATO III; assay: Photochemical treatment of KATO III tumours in nude mice; assay type: in vivo, human; settings: Tables 6 and 7
Procedure: Ten nude mice having weight 200-400 g were selected, and they were separated into five groups referred to as A, B, C, D and E, each containing two nude mice. Each of the mice was inocculated on its back with KATO III, which is a culture of stomach cancer cells from a human patient. The cancer cells were inocculated into the central part of the back of each mouse, after which the mice were kept for ten days. […] The mice in groups A, B and E were injected with the compound 1 (Y=I) in balanced saline solution through a vein in the leg. The amount of compound 1 which was administered to each mouse was 1 mg per 1 kg of the mouse's weight. Thereafter, the cancerous growth in each mouse in the group A and C was irradiated with white light in which the radiation of wavelength 400 nm or less and radiation of wavelength 1000 nm or above was filtered out. In group E, a part of every mouse's back was irradiated with the white light. In each case the amount of irradiation was 50J. Thereafter, the cancerous region of each mouse in the group a to D was observed and the skin of each mouse in the group E was observed.
The same test as in Example 10 was carried out except that the compound 2 was used in place of the compound 1. the results are shown in Table 7.

[9] = Mus musculus, L929, 12 h, 3 min, 560-610 nm, Y=I
[10] = Mus musculus, L929, 12 h, 5 min, 560-610 nm, Y=I
[11] = Mus musculus, L929, 1 min, 1 min, 600-650 nm, Y=I
[12] = Mus musculus, L929, 0.05 h, 3 min, 600-650 nm, Y=I
[13] = Mus musculus, L929, 5 min, 5 min, 600-650 nm, Y=I

Absorption (max) Peak Under existence of DNA [4]	Absorption (max) Peak Under no existence of DNA [7]	SMILES	change on irradiation of mice without tumour [1]	affinity for cancer cells versus normal cells [1]	cell killing without irradiation [2]	adverse effects (acute toxicity) [5]	Molar absorption coefficient ε [7]	effectiveness in photochemical treatment of human cancer cells growing in live mice [8]	other results
720 nm	660 nm	CN(C)c1ccc(C=CC=Cc2cc(-c3ccccc3)[o+]c(-c3ccccc3)c2)cc1 [Compound 9]							
660 nm	625 nm	CN(C)c1ccc(C=CC(C=Cc2ccc(N(C)C)cc2)=Cc2cc(-c3ccccc3)[o+]c(-c3ccccc3)c2)cc1 [Compound 11]							

Continued, molecule first:

SMILES	Absorption (max) Peak Under existence of DNA [4]	Absorption (max) Peak Under no existence of DNA [7]	change on irradiation of mice without tumour [1]	affinity for cancer cells versus normal cells [1]	cell killing without irradiation [2]	adverse effects (acute toxicity) [5]	Molar absorption coefficient ε [7]	effectiveness in photochemical treatment of human cancer cells growing in live mice [8]	other results
Cc1cc(-c2ccc(N(C)C)cc2)cc(-c2ccc(N(C)C)cc2)[o+]1 [Compound 1, 2-methyl-4,6-bis-(4-N,N-dimethylaminophenyl) pyrylium iodide]	580 nm	540 nm	no change was observed	different from the affinity	not killed and continued to grow in culture	no adverse effects	84600 L/mol/cm	effective in the photochemical treatment of human cancer cells growing in live mice	Change of skin ([1]; Table 6, group E: 1 mg/kg i.v., irradiated 50J): No Change; effectiveness to kill cancer cells ([2]; 0.1-0.5 μg/ml, irradiation 1-5 minutes): effective to kill cancer cells; cytotoxicity at 0.1 µg/mL ([2]; Mus musculus, L929, 12 h, read-out: percentage of cells which had died, 0.1 μg/ml, 5 min, 560-610 nm, Y=I): 100%; cytotoxicity at 0.25 µg/mL [2, 9]: ~100%; cytotoxicity at 0.25 µg/mL [2, 10]: 100%; cytotoxicity at 0.5 µg/mL ([2]; Mus musculus, L929, 12 h, 1 min, 560-610 nm, Y=I): ~90%; cytotoxicity at 0.5 µg/mL [2, 9]: ~100%; cytotoxicity at 0.5 µg/mL [2, 10]: 100%; Deepness of died tumour [3]: 4.5 mm and 4.8 mm; uptake by the cancer cells [6]: rapid; absorption peak region ([7]; Table 2): below 600 nm
Cc1cc(-c2ccc(N(C)C)cc2)cc(-c2ccc(N(C)C)cc2)[s+]1 [Compound 2, 2-methyl-4,6-bis-(4-N,N-dimethylaminophenyl)thiopyrylium iodide]	620 nm	580 nm	no change was observed	different from the affinity	not killed and continued to grow in culture	no ill effects	49500 L/mol/cm	effective in the photochemical treatment of human cancer cells growing in live mice	Change of skin ([1]; Table 7, group E': medicated, irradiated): No Change; cytotoxicity at 0.05 µg/mL [2, 11]: ~10%; cytotoxicity at 0.075 µg/mL [2, 11]: 80%; cytotoxicity at 0.1 µg/mL ([2]; Mus musculus, L929, 1 min, read-out: percentage of cells which died, 0.1 μg/ml, 1 min, 600-650 nm, Y=I): 100%; cytotoxicity at 0.05 µg/mL [2, 12]: 80%; cytotoxicity at 0.075 µg/mL [2, 12]: 100%; cytotoxicity at 0.1 µg/mL ([2]; Mus musculus, L929, 0.05 h, read-out: percentage of cells which died, 0.1 μg/ml, 3 min, 600-650 nm, Y=I): 100%; cytotoxicity at 0.025 µg/mL ([2]; Mus musculus, L929, 5 min, read-out: percentage of cells which died, 0.025 μg/ml, 5 min, 600-650 nm, Y=I): ~50%; cytotoxicity at 0.05 µg/mL [2, 13]: 100%; cytotoxicity at 0.075 µg/mL [2, 13]: 100%; cytotoxicity at 0.1 µg/mL ([2]; Mus musculus, L929, 5 min, read-out: percentage of cells which died, 0.1 μg/ml, 5 min, 600-650 nm, Y=I): 100%; killing effect compared with another compound ([2]; with irradiation): greater killing effect than compound 1
CN(C)c1ccc(C=Cc2cc(-c3ccccc3)cc(-c3ccccc3)[s+]2)cc1 [Compound 8]	610 nm	650 nm							
CCN(CC)c1ccc(C=Cc2ccc(C=Cc3cc(-c4ccccc4)cc(-c4ccccc4)[o+]3)cc2)cc1 [Compound 17]	720 nm	690 nm							
